Reference: PMC8318231, “Rate-of-Kill (RoK) assays to triage large compound sets for Chagas disease drug discovery: Application to GSK Chagas Box” (PLoS Neglected Tropical Diseases, 2021)

Key:
TcCYP51 = conditions: formerly reported; cited from earlier work
[1] = test system: T. cruzi Tulahuen trypomastigotes; test: T. cruzi trypomastigote assay (Cell Titer-Glo viability, ATP luminescence); type: cell-based, Trypanosoma cruzi; conditions: for Trypomastigotes pIC50 48 hours: 48 hours incubation; for Trypomastigotes pIC50 48 hours / Trypomastigotes pIC50 72 hours: pIC50 = -log10 IC50 in molar units; for Trypomastigotes pIC50 72 hours: 72 hours incubation; for 48 pIC50 / 72 pIC50: trypomastigote assay; for 48 pIC50: 48 h; for 72 pIC50: 72 h
Experimental: T. cruzi Tulahuen trypomastigotes obtained from the supernatants of LLC-MK2 infected cultures in a 225 cm^2 T-Flasks harvested between days 5 and 8 of infection. Trypomastigotes (5 × 10^4 per well) in 50 μl of DMEM/ 2% FBS were dispensed into white 384 plates (Greiner) pre-stamped with 250 nl compound a single-shot final concentration of 5 μM, or in dose response. […] Cell Titer-Glo cell viability solution (Promega) was added to each well (50 μL) incubated at room temperature for 10 min and luminescence read by Envision plate reader (Perkin Elmer). This assay quantifies the amount of ATP present which is directly proportional to the number of metabolically active cells. All data were normalised (100% effect control for no cells and 0% effect control for DMSO). This assay was adapted from MacLean et al., 2018 [22].

Compound	CYP51 pIC50 (TcCYP51)	Trypomastigotes pIC50 48 hours [1]	Trypomastigotes pIC50 72 hours [1]	48 pIC50 ([1]; figure 1A)	72 pIC50 ([1]; figure 1A)	72 pIC50 ([1]; figure 1B)
O=c1ccn(-c2ccc([N+](=O)[O-])cc2Cl)c2ccc(F)cc12 [TCMDC-143520]	4.8	< 4.3	< 4.3	< 4.3	< 4.3	< 4.3
Cc1c(CNC(=O)c2ccc(Cn3cc(Cl)c([N+](=O)[O-])n3)cc2)cnn1C [TCMDC-143153]	< 4	4.7	5.3			
Cc1ccc2ccc(C(Nc3ccccn3)c3cccnc3)c(O)c2n1 (centres unmarked) [TCMDC-143308]	7.3	5.7	5.4			
Cc1nc(N2CCC(C(=O)N3CCC(O)(c4cccnc4)CC3)CC2)nc2ccc(C(C)C)cc12 [TCMDC-143333]	6.9	4.5	4.4			
COc1ccc2nc(N(Cc3cccnc3)C(=O)C3CCC3)sc2c1 [TCMDC-143437]	7.2	< 4.3	< 4.3	< 4.3	< 4.3	< 4.3
CC1(C)CCC(=Cc2ccc(Cl)cc2)CC1(O)Cn1ccnc1 (centres unmarked) [TCMDC-125222]	7.3	5.1	4.8			
Cc1ccccc1OCC(=O)N1CCCN(c2cccnn2)CC1 [TCMDC-143495]	7.1	< 4.3	< 4.3	< 4.3	< 4.3	< 4.3
O=c1[nH]c(C=Cc2cccc(OCCOc3ccccc3)c2)nc(O)c1[N+](=O)[O-] [TCMDC-143209]	< 4	< 4.3	< 4.3	< 4.3	< 4.3	< 4.3
CC1(Oc2cncc(Cl)c2)CCN(Cc2cc3ccccc3[nH]2)C1 (centres unmarked) [TCMDC-143162]	5	5.6	6.1			
c1cc(-c2ncc(-c3ccn[nH]3)s2)ccn1 [TCMDC-143461]	7.4	< 4.3	< 4.3	< 4.3	< 4.3	< 4.3
Fc1ccccc1N1C[C@H]2CCN(c3cccnc3)C[C@H]2C1.O=C(O)C(F)(F)F [TCMDC-143422]	7.2	4.6	< 4.3			
COc1ccc(-c2nc3ccncc3c(=O)n2CCOc2ccccc2)cc1 [TCMDC-143182]	7.4	< 4.3	< 4.3	< 4.3	< 4.3	< 4.3
CN(Cc1cc2ccccc2s1)c1ncc2c(N)nc(N)nc2n1 [TCMDC-143232]	< 4	5.3	5.5			
C=CCOCC1Cn2nc([N+](=O)[O-])nc2O1 (centres unmarked) [TCMDC-143149]	< 4	< 4.3	< 4.3	< 4.3	< 4.3	< 4.3
N#Cc1nc(C=Cc2ccccc2)oc1NCc1cccnc1 [TCMDC-143120]		4.5	< 4.3			
CN(Cc1ccccc1)Cc1nnnn1C1CCN(Cc2ccc(-n3ccnc3)cc2)CC1 [TCMDC-143322]	7.3					
O=C(Nc1ccc(C(=O)N2CCCC2c2ccc3c(c2)OCCCO3)cc1)c1ccco1 (centres unmarked) [TCMDC-143198]	4.2					
CN(Cc1nnnn1C1CCN(Cc2ccc(-n3ccnc3)cc2)CC1)c1ccc(F)cc1F [TCMDC-143321]	6.9					
